Where a name gives a salt, the structure may show the parent alone.
Columns and labels:
sweat glands = assay: rat foot pad sweat inhibition (starch-iodine count of secreting sweat glands, test foot vs control foot); type: in vivo, Sprague Dawley rats; conditions: for Approx. % Inhibition: topical, rat hind foot pads, 40 minutes post treatment
Experimental: A series of test solutions were prepared by dissolving various quantities of xylometazoline HCl, oxymetazoline HCl and naphazoline HCl in freshly prepared distilled water. In the case of xylometazoline HCl 0.003%, 0.03%, 0.15% and 0.3% solutions were prepared. In the cases for oxymetazoline HCl and naphazoline HCl 0.15% solutions were made. The control material is distilled water.
A. Prior to testing, rats are routinely acclimated to the laboratory environment for seven days and gross observations are made to ensure good health of animals to be tested.
B. Sprague Dawley rats, male and/or female (175-250 gm) are selected for test and identified by cage label and ear tag number.
C. A minimum of 6 animals is used in testing each solution.
A. Test room should be maintained at a temperature of 78°±2° F.
1. Test animals are injected intramuscularly with Innovar Vet™ (0.01 ml/100 gm body wt.) by use of a 0.25 ml tuberculin syringe with a 26 or 27 gauge needle. Animals are then returned to their cages.
3. Both hind feet are then swabbed with 70% ethyl alcohol (ETOH) to remove any debris.
4. The four interdigital palmar foot pads on one hind foot are then treated with test material while the opposite hind foot is treated with the control material.
5. After treatment of all animals, an iodine solution (2% in 95% ETOH wt./vol.) is applied to both hind feet.
6. 30 minutes post treatment the hind feet are then painted with a suspension of starch and castor oil (50/50, wt./vol.).
7. 40 minutes post treatment Polaroid photos (3X, using Polaroid Type Film 669) are taken of both hind feet in the same frame.
1. The number of activated sweat glands in each of the four palmar foot pads is quantitated by manually counting the black dots observed in the photo of the control and test treated feet.
2. The ratio of the total number of secreting sweat glands on the control foot vs the total number of secreting sweat glands on the test foot is used to estimate the percent inhibition of sweat in the rat foot pad.
3. The following formula is used to calculate activity. [formula]

[1] = system: single equine sweat glands; conditions: cited from earlier work

Structure (SMILES)	Approx. % Inhibition (sweat glands; Concentration Tested 0.15%)	sweating responses [1]	other results
c1ccc2c(CC3=NCCN3)cccc2c1 [Naphazoline HCl, naphazoline HCl]	~95%	–	–
Cc1cc(C(C)(C)C)c(O)c(C)c1CC1=NCCN1 [Oxymetazoline HCl, oxymetazoline HCl]	~92%	–	–
Cc1cc(C(C)(C)C)cc(C)c1CC1=NCCN1 [Xylometazoline HCl, xylometazoline HCl]	~80%	–	dose response of percent inhibition (sweat glands; 0.003-0.3% solutions): the percent inhibition increased with the increase in concentration of the test drug; Approx. % Inhibition (sweat glands; Concentration Tested 0.003%): ~30%; Approx. % Inhibition (sweat glands; Concentration Tested 0.03%): ~50%; Approx. % Inhibition (sweat glands; Concentration Tested 0.3%): ~88%
COc1ccc(OC)c(C(O)C(C)N)c1 (stereo not drawn) [methoxamine]	–	moderate sweating responses	–
CNC[C@H](O)c1cccc(O)c1 [phenylephrine]	–	moderate sweating responses	–
